Data from publication PMC10778704, “Comparative Analysis of Cyclization Techniques in Stapled Peptides: Structural Insights into Protein–Protein Interactions in a SARS-CoV-2 Spike RBD/hACE2 Model System” (International Journal of Molecular Sciences, 2023).
Bridge positions count the residues as written; N and C are the ends. Square brackets hold non-standard residues; d marks the D form. Peptide text beside a SMILES is read from it. S5 = C=CCCC[C@](C)(N)C(=O)O

System: SARS-CoV-2 pseudovirus
Details: 48 h, 735 μM

| SMILES | Inhibition of the pseudovirus [%] |
| --- | --- |
| CC(=O)N[C@@H](Cc1c[nH]cn1)C(=O)N[C@@H](CCC(=O)O)C(=O)N[C@@]1(C)CCC/C=C/CCC[C@@](C)(C(=O)N[C@@H](Cc2ccc(O)cc2)C(=O)N[C@@H](CCC(N)=O)C(N)=O)NC(=O)[C@H](CC(C)C)NC(=O)[C@H](CC(=O)O)NC(=O)[C@H](CCC(=O)O)NC1=O [peptide 11, Ac-NH-His-Glu-[S5-Glu-Asp-Leu-S5]-Tyr-Gln-CO-NH2] (Ac-HE[S5]EDL[S5]YQ-NH2; staple (E) 3-7) | 68 |
| CC(=O)N[C@@H](Cc1c[nH]cn1)C(=O)N[C@@H](CCC(=O)O)C(=O)N[C@H]1CCCCNC(=O)C[C@@H](C(=O)N[C@@H](Cc2ccc(O)cc2)C(=O)N[C@@H](CCC(N)=O)C(N)=O)NC(=O)[C@H](CC(C)C)NC(=O)[C@H](CC(=O)O)NC(=O)[C@H](CCC(=O)O)NC1=O [peptide 4, Ac-NH-His-Glu-[Lys-Glu-Asp-Leu-Asp]-Tyr-Gln-CO-NH2] (Ac-HEKEDLDYQ-NH2; lactam 3-7) | 48 |
